Among the data in ChEMBL document CHEMBL5365438, “2-Substituted 1,5-benzothiazepine-based HDAC inhibitors exert anticancer activities on human solid and acute myeloid leukemia cell lines” (Bioorg Med Chem, 2023) are Activity, IC50 and inhibition values, retold here.

One may read the IC50 as the concentration that inhibits the measured activity by half. Low readings indicate greater potency, high ones weaker potency. Usually inhibition stands for the percentage by which the read-out fell short of the control. High values mean strong suppression, low ones little suppression.

For assay [1], the system named is HCT-116. Put plainly: Cytotoxicity against human HCT-116 cells assessed as reduction in cell death at 1 uM incubated for 24 hrs by PI staining based FACS analysis. The assay is classed as functional. (In flow cytometry, cells or beads pass a laser one at a time.)
A further assay concerns the target Histone deacetylase. The assay is classed as subcellular, Homo sapiens, Nucleus. Conditions: hela.
The test system of assay [2] is U-937. In words: Cytotoxicity against human U-937 cells assessed as cell death at 5 uM incubated for 24 hrs by PI staining based FACS analysis relative to control. The assay is classed as functional.
Assay [3] concerns HCT-116. In words: Cytotoxicity against human HCT-116 cells assessed as cell death at 5 uM incubated for 24 hrs by PI staining based FACS analysis relative to control. Type of assay: functional.
The subject of assay [4] is U-937. In words: Induction of cell cycle arrest in human U-937 assessed as reduced accumulation of cells in S phase at 1 uM incubated for 24 hrs by FACS analysis. The assay is classed as functional, cell-based.
For assay [5], the system named is U-937. Put plainly: Induction of cell cycle arrest in human U-937 assessed as increase accumulation of cells in G2/M phase at 1 to 5 uM incubated for 24 hrs by FACS analysis. Conditions: dose 1-5 µM. Type of assay: functional, cell-based.
Assay [6] has as its system U-937. In words: Induction of cell cycle arrest in human U-937 assessed as decrease accumulation of cells in G1 phase at 5 uM incubated for 24 hrs by FACS analysis. Type of assay: functional, cell-based.
Assay [7] relates to HCT-116. Put plainly: Induction of cell cycle arrest in human HCT-116 assessed as accumulation of cells in G2/M phase at 1 to 5 uM incubated for 24 hrs by FACS analysis relative to SAHA. Type of assay: functional. As to conditions: dose 1-5 µM.
In assay [8] the target is T1, Histone deacetylase (Homo sapiens) (UniProt Q13547+O15379+Q9UBN7+Q92769+Q9UQL6+Q8WUI4+Q9BY41+Q96DB2+P56524+Q9UKV0+Q969S8). In words: Inhibition of HDAC in human U-937 cells assessed as upregulation of histone H3 acetylation at lysine 14 residue at 1 uM incubated for 24 hrs by immunoblotting analysis. The assay is classed as cell-based.
Assay [9] deals with T1, Histone deacetylase (Homo sapiens). Put plainly: Inhibition of HDAC in human U-937 cells assessed as upregulation of histone H3 acetylation at lysine 14 residue at 5 uM incubated for 24 hrs by immunoblotting analysis. The assay is classed as cell-based. A general note: Immunoblotting shows a protein as a band on a membrane.
The target is the same in assay [10]. Put plainly: Inhibition of HDAC in human HCT-116 cells assessed as upregulation of acetyl alpha-tubulin level at 1 to 5 uM incubated for 24 hrs by immunoblotting analysis. Type of assay: cell-based. As to conditions: dose 1-5 µM.
Assay [11] relates to HCT-116. In words: Induction of apoptosis in human HCT-116 cells assessed as increased p21 protein expression level at 1 to 5 uM incubated for 24 hrs by immunoblotting analysis. Type of assay: functional, cell-based. As to conditions: dose 1-5 µM.
For assay [12], the system named is U-937. Put plainly: Induction of apoptosis in human U-937 cells assessed as increased p21 protein expression level at 1 to 5 uM incubated for 24 hrs by immunoblotting analysis. Type of assay: functional, cell-based. As to conditions: dose 1-5 µM.
In assay [13] the target is Histone deacetylase 4 (Homo sapiens) (UniProt P56524). Put plainly: Inhibition of HDAC4 (unknown origin) at 10 uM using fluorogenic peptide as substrate pre-incubated for 15 mins followed by substrate addition incubated for 30 mins by fluorescence assay. As to conditions: time 45.0 min.
In assay [14] the target is T2, Histone deacetylase 1 (Homo sapiens, UniProt Q13547). Put plainly: Inhibition of HDAC1 (unknown origin) at 10 uM using fluorogenic peptide as substrate pre-incubated for 15 mins followed by substrate addition incubated for 30 mins by fluorescence assay relative to control. Conditions: time 45.0 min.
Assay [15] deals with T3, Protein deacetylase HDAC6 (Homo sapiens) (UniProt Q9UBN7).
T3 sequence (whole entry): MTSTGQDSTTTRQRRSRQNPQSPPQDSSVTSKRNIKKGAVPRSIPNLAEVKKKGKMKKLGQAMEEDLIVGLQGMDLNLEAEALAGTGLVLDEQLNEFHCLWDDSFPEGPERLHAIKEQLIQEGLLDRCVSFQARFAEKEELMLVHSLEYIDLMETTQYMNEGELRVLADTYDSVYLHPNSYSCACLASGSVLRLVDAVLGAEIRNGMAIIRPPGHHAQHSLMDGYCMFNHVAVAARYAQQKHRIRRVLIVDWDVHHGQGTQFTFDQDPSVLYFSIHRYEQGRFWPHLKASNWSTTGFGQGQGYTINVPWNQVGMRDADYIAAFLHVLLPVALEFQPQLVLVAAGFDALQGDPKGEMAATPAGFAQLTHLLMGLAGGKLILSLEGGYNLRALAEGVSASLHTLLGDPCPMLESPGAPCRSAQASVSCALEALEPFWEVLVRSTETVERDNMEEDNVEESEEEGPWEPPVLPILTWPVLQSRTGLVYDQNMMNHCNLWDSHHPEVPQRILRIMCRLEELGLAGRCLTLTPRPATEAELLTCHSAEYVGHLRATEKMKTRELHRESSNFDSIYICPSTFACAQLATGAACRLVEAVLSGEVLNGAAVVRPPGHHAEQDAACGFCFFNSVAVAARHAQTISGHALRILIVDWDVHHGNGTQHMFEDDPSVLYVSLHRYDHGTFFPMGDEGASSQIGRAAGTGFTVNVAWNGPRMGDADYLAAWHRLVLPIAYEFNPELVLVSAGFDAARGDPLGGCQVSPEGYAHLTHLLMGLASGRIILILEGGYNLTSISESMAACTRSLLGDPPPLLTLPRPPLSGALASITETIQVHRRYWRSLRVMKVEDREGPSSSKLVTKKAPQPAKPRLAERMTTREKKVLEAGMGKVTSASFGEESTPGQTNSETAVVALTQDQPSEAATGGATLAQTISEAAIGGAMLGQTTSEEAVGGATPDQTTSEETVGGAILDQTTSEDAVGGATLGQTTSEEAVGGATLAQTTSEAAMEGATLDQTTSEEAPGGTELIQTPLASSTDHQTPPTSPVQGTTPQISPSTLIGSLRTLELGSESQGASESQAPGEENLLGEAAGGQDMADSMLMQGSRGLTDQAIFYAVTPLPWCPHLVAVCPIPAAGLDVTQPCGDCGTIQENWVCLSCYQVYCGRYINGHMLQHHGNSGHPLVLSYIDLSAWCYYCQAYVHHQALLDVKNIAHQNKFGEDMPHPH
In words: Inhibition of HDAC6 (unknown origin) at 10 uM using fluorogenic peptide as substrate pre-incubated for 15 mins followed by substrate addition incubated for 30 mins by fluorescence assay. Conditions: time 45.0 min.

Assay [16] addresses T2, Histone deacetylase 1. Put plainly: Inhibition of HDAC1 (unknown origin) using fluorogenic peptide as the substrate containing residues 379-382 of p53 pre-incubated for 15 mins followed by substrate addition incubated for 30 mins by multimode plate reader.
Assay [17] deals with U-937. In words: Cytotoxicity against human U-937 cells assessed as cell death at 1 to 5 uM incubated for 24 hrs by PI staining based FACS analysis relative to control. The assay is classed as functional. As to conditions: dose 1-5 µM.
Assay [18] has as its target T1, Histone deacetylase (Homo sapiens). In words: Inhibition of HDAC in human HCT-116 cells assessed as upregulation of histone H3 acetylation at lysine 14 residue at 1 uM incubated for 24 hrs by immunoblotting analysis. Type of assay: cell-based.
The target is the same in assay [19]. Put plainly: Inhibition of HDAC in human U-937 cells assessed as upregulation of acetyl alpha-tubulin level at 5 uM incubated for 24 hrs by immunoblotting analysis. The assay is classed as cell-based.
Assay [20] relates to U-937. In words: Induction of cell cycle arrest in human U-937 assessed as decrease accumulation of cells in G1 phase at 1 to 5 uM incubated for 24 hrs by FACS analysis. The assay is classed as functional, cell-based. As to conditions: dose 1-5 µM.
Assay [21] has as its system HCT-116. Put plainly: Induction of cell cycle arrest in human HCT-116 assessed as decrease accumulation of cells in G1 phase at 1 to 5 uM incubated for 24 hrs by FACS analysis. The assay is classed as functional, cell-based. As to conditions: dose 1-5 µM.
The test system of assay [22] is U-937. In words: Induction of cell cycle arrest in human U-937 assessed as decrease accumulation of cells in S phase at 1 to 5 uM incubated for 24 hrs by FACS analysis. The assay is classed as functional, cell-based. As to conditions: dose 1-5 µM.
Assay [23] has as its system HCT-116. Put plainly: Induction of cell cycle arrest in human HCT-116 assessed as decrease accumulation of cells in S phase at 1 to 5 uM incubated for 24 hrs by FACS analysis. Type of assay: functional, cell-based. As to conditions: dose 1-5 µM.

The structures appear in SMILES notation. Calls of active or inactive are those of the source. No cut-off for these calls is given here.

T2 sequence (Q13547 whole entry): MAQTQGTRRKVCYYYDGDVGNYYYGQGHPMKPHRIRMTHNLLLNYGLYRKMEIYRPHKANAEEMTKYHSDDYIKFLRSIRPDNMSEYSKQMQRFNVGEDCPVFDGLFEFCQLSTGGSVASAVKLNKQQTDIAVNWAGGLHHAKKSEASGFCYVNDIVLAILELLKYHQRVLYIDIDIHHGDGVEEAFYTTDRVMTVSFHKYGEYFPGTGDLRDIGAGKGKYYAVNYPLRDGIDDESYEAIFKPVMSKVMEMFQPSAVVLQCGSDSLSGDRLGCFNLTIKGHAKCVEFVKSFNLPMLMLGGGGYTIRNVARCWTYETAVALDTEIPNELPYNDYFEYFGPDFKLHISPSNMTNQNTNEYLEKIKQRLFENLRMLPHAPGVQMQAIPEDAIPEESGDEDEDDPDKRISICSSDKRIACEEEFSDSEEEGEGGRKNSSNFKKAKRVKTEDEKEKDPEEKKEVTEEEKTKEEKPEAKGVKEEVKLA
Chain of Histone deacetylase 4 (Homo sapiens) (P56524 whole entry): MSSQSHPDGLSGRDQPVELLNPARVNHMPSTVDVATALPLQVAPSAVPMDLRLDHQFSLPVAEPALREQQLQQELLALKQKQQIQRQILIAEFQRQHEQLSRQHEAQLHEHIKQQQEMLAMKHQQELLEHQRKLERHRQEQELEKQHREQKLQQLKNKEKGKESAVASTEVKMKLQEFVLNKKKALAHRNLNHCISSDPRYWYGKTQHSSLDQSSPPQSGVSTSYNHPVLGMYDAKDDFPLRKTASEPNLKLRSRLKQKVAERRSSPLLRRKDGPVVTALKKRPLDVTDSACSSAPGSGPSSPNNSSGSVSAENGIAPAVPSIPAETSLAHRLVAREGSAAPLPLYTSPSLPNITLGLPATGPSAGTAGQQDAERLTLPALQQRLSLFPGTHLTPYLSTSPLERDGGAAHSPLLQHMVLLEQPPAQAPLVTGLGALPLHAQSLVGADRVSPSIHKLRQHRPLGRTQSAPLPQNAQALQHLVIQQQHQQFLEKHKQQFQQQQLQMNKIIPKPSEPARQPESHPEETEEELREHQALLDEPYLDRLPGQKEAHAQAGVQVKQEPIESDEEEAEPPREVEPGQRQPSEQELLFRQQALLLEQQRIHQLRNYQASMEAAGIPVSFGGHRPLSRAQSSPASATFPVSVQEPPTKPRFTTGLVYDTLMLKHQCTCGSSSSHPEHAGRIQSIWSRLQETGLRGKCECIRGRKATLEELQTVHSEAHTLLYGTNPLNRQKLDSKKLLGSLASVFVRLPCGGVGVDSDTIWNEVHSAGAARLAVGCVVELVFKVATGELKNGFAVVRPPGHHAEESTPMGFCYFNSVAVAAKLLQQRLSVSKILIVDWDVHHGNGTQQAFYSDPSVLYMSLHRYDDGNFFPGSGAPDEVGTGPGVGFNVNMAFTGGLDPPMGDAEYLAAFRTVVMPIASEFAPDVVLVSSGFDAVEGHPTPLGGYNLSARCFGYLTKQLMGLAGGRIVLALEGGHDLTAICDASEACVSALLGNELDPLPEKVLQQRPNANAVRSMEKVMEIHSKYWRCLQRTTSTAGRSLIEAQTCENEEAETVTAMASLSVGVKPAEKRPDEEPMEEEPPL

Turning to `O=C(CCCCCN1C(=O)C[C@@H](c2ccc(Cl)c(Cl)c2)Sc2ccccc21)NO`, the result (in the assay with HCT-116 [1]; with U-937 [4]; with U-937 [5]; in the assay with U-937 [6]; with HCT-116 [7]; in [8]) was Active. The result (in assay [9]; in [10]; with HCT-116 [11]; with U-937 [12]) was Active. Besides, the IC50 on Histone deacetylase was found to be 165.1 nM. The figures for the Activity in the assay with U-937 [2] and with HCT-116 [3] were roughly 12% and 22%, respectively.
Turning to `O=C(NCC1(c2nc(-c3ccccc3)cs2)CCOCC1)c1cccc(-c2noc(C(F)(F)F)n2)c1`, the inhibition in [13] was found to be 99.2%.
In the case of `O=C(CCCCCN1C(=O)CC(c2ccccc2Cl)S(=O)(=O)c2ccccc21)NO` (racemic), the IC50 at Histone deacetylase was found to be 40.6 nM; at Histone deacetylase 1 [16], 270 nM. Moreover, the inhibition is 92.6% against Histone deacetylase 1 [14] and 99.4% in assay [15]. Moreover, in the assay on U-937 [17], the Activity was roughly 6%. Also, the outcome (in the assay on U-937 [5]; with HCT-116 [7]; in assay [8]; in assay [9]; in assay [18]; in assay [19]) was Active. The result (in [10]; with HCT-116 [11]; in the assay with U-937 [12]; in the assay on U-937 [20]; with HCT-116 [21]; in the assay on U-937 [22]) was Active. The outcome with HCT-116 [23] was Active.
Turning to `O=C(CCCCCN1C(=O)CC(c2cccc3ccccc23)S(=O)(=O)c2ccccc21)NO` (racemic), the IC50 at Histone deacetylase stood at 77.9 nM; at Histone deacetylase 1 [16] it was 378 nM. In addition, the inhibition at Histone deacetylase 1 [14] was found to be 80.9%; in assay [15] it was 99.3%. Moreover, the Activity in the assay with U-937 [17] is given as roughly 6%. Also, the outcome (with U-937 [5]; in the assay with HCT-116 [7]; in assay [8]; in assay [9]; in assay [18]; in assay [19]) was Active. Further, the result (in assay [10]; in the assay with HCT-116 [11]; in the assay on U-937 [12]; with U-937 [20]; with HCT-116 [21]; with U-937 [22]) was Active. In the assay with HCT-116 [23], the result was Active.
For `O=C(CCCCCN1C(=O)CC(c2ccc(Cl)c(Cl)c2)Sc2ccccc21)NO` (racemic), the result (with HCT-116 [1]; with U-937 [4]; in the assay with U-937 [5]; with U-937 [6]; with HCT-116 [7]; in [9]) was Active. The outcome (in assay [19]; in assay [10]; in the assay on HCT-116 [11]; in the assay on U-937 [12]) was Active. At Histone deacetylase, this compound displayed an IC50 of 229.2 nM. Also, the Activity with U-937 [2] is reported as roughly 12%; with HCT-116 [3], 22%.
With `O=C(CCCCCN1C(=O)CC(c2cccc(Br)c2)Sc2ccccc21)NO` (racemic), the outcome (with HCT-116 [1]; in the assay on U-937 [4]; in the assay with U-937 [5]; with U-937 [6]; with HCT-116 [7]; in assay [9]) was Active. Moreover, the result (in assay [19]; in assay [10]; in the assay on HCT-116 [11]; in the assay on U-937 [12]) was Active. The half-inhibitory concentration (IC50) against Histone deacetylase is 293.3 nM. For the same compound, the Activity is recorded as roughly 12% in the assay with U-937 [2] and 22% with HCT-116 [3].
